The results in this text go back to patent US20230149432A1, “Human Milk Oligosaccharides for Improving Resistance of Organism Against Staphylococcus Aureus Infection” (Inner Mongolia Yili Industrial Group Co., Ltd., priority 2020, published 2023).

Assay [1] concerns Staphylococcus aureus ATCC25923. The assay can be described thus: Nematode infection model and lifespan assay (survival of C. elegans infected by Staphylococcus aureus). The class given is in vivo, Caenorhabditis elegans. Conditions: for dose-effect relationship of protection of nematode survival: doses up to 30 mg/mL. The method, then: Human milk oligosaccharide solutions were prepared with distilled water and incubated in Petri dishes containing a nematode growth medium at different final concentrations (1, 10, and 30 mg/mL, respectively). To better determine the range of the ideal concentration, a preliminary screening on the dose-effect relationship of 2′-FL was first performed, and the 2′-FL concentrations used were 0.001, 0.01, 0.1, 1 and 10 mg/mL. For the HMO compositions, included were a test concentration of 8 mg/mL and a 15 mg/mL, respectively, after the addition into the nematode growth medium.
Age-consistent nematodes were obtained and cultured in Petri dishes containing nematode agar media (nematode media containing E. coli OP50 as food) with different doses of HMO (1, 8, 10, 15, 30 mg/mL) for co-culture. After the nematodes came into adulthood, they were transferred to petri dishes inoculated with Staphylococcus aureus ATCC25923 (supplemented at approximately 10^8 to 10^9CFU/mL) to simulate the condition of infection by Staphylococcus aureus. The intervening substances (HMO) added in the infection stage of each group were the same as those in the culture stage. Two controls were used, one without the pathogen (C. elegans dish containing E. coli OP50) and one with Staphylococcus aureus infection without any intervention (dish with Staphylococcus aureus only). In addition, a group in which an intervening substance was added in the culture phase and no intervention in the infection phase, and a group in which the intervention substance was not added in the cultivation phase but added in the infection phase were set up.
Several days into the culture of the nematodes, their survival rate was counted on a daily basis. […] Two independent assays were carried out for each condition (that is, unless otherwise specified, the experimental data in the examples were the results of two independent experiments).
Statistical comparative analysis of survival curves was performed, and log rank survival significance analysis was performed using the GraphPad Prism 4 or GraphPad Prism 9 statistical software package. One-way ANOVA was used to analyze for significant differences in survival rates among the groups on the third or fifth day of infection. For the comparison of the groups, an asterisk*represents the degree of the significant difference, with ****indicating P<0.0001, and ***indicating P<0.001. NS means not significant.

For assay [2] the test system is unchanged. Description: Disc diffusion bacteriostatic zone experiment. The format is cell-based. Conditions: positive control, 200 μg/mL; 37° C., 18 hours. The method, then: In order to determine whether the tested materials themselves have an antibacterial effect, a bacteriostatic zone experiment for disk diffusion was carried out. Discs were prepared with sterile filter paper impregnated with the tested HMO materials (10 mg/mL, 30 mg/mL), and the discs were dried overnight under sterile conditions. Staphylococcus aureus ATCC25923 (1.0×10^6CFU/mL) was spread evenly on the surface of a NGM agar plate, and then the discs were placed on the surface of the inoculated agar plate petri dish. Gentamicin (200 μg/mL) was used as a positive control. All dishes were incubated at 37° C. for 18 hours.
In order to investigate whether the protective effects of individual HMOs or their compositions against Staphylococcus aureus infection, as presented in previous tests, were derived from direct bactericidal or bacteriostatic function, a test was carried out in which the test material was incubated with the bacteria population and observed whether an bacteriostatic zone of was formed. As shown in the figure, at two different concentration (left: 10 mg/mL, right: 30 mg/mL), none of the human milk oligosaccharides alone formed a transparent annular bacteriostatic zone around the inoculation site. […]

[3] abbreviates: 10 mg/mL, vs infected control without intervention.
Setting [4] is: 30 mg/mL, vs infected control without intervention.
Setting [5] is: 1 mg/mL, vs infected control without intervention.

With 2′-fucosyllactose [2′-FL], the “effect on nematode survival rate after Staphylococcus aureus infection” value (“effect on nematode survival rate” for short) in assay [1] (setting [3]) was “considerable increase in nematode survival rate which was significant (P<0.0001)”; in assay [1] (15 mg/mL, another batch of experiments), “significantly improves the survival rate of nematodes”; in assay [1] (setting [4]), “the protective effect was significantly increased, and the effect was significant (P<0.0001)”; in assay [1] (doses at 1 mg/mL or less, survival curve vs infected control without intervention), “did not show any effects”. Further, in assay [1] (15 mg/mL), the “effect on lifespan of nematodes after Staphylococcus aureus infection” value is reported as “significantly prolongs the lifespan of nematodes”. In addition, in assay [1], the “dose-effect relationship of protection of nematode survival” value (shortened to “dose-effect relationship”) is “dose-dependent and optimal at 30 mg/mL”.

Regarding 3-fucosyllactose [Composition 3-FL], the “effect on nematode survival rate” value was “no effect” in assay [1] (setting [5]), “better protective function (P<0.0001)” in assay [1] (setting [3]) and “better protective function (P<0.0001)” in assay [1] (setting [4]). For the same compound, the “dose-effect relationship” value in assay [1] was “greater protection shown at higher doses”. For the same compound, in assay [1] (infection for 3 days, 3-FL 10 mg/mL vs 2′-FL 30 mg/mL), the “survival rate of nematodes compared with 2′-FL” value is listed as “the same effect was achieved with 3-FL at 10 mg/mL as that with 2′-FL at 30 mg/mL”. Besides, in assay [1] (same dose, infection for 3 days), the “protection of nematodes compared with 2′-FL at the same dose” value is reported as “more effective in protecting nematodes from Staphylococcus aureus infection than 2′-FL”.

Take `CC(=O)N[C@H]1[C@H]([C@H](O)[C@H](O)CO)O[C@@](O[C@H]2[C@@H](O)[C@@H](CO)O[C@@H](O[C@H]3[C@H](O)[C@@H](O)C(O)O[C@@H]3CO)[C@@H]2O)(C(=O)O)C[C@@H]1O` (stereo partly shown) [3′-SL, 3′-sialyllactose]: the “effect on nematode survival rate” value in assay [1] (setting [5]), in assay [1] (setting [3]) and in assay [1] (setting [4]) was “no significant effect was observed” in each case.

Turning to `CC(=O)N[C@H]1[C@H]([C@H](O)[C@H](O)CO)O[C@@](OC[C@H]2O[C@@H](O[C@H]3[C@H](O)[C@@H](O)[C@H](O)O[C@@H]3CO)[C@H](O)[C@@H](O)[C@H]2O)(C(=O)O)C[C@@H]1O` [6′-SL, 6′-sialyllactose], the “effect on nematode survival rate” value was “not greatly improved” in assay [1] (setting [5]), “significantly improved” in assay [1] (setting [3]) and “significantly improved” in assay [1] (setting [4]). The “dose-effect relationship” value in assay [1] is recorded as “has a dose-effect relationship”. Also, the “survival rate of nematodes” value in assay [1] (under protection of 6′-SL, 10 or 30 mg/mL, infected for 3 days) is given as “up to 75%”.

For the compound `CC(=O)N[C@H]1[C@H](O[C@H]2[C@@H](O)[C@@H](CO)O[C@@H](O[C@H]3[C@H](O)[C@@H](O)C(O)O[C@@H]3CO)[C@@H]2O)O[C@H](CO)[C@@H](O)[C@@H]1O[C@@H]1O[C@H](CO)[C@H](O)[C@H](O)[C@H]1O` (stereo partly shown) [LNT, Lacto-N-Tetraose], the results for the “effect on nematode survival rate” value in assay [1] (setting [5]), in assay [1] (setting [3]) and in assay [1] (setting [4]) were “not greatly improved”, “significantly improved” and “significantly improved”, respectively. The “dose-effect relationship” value in assay [1] was “has a dose-effect relationship”.

Gentamicin: the “formation of a transparent annular bacteriostatic zone” value in assay [2] was “showed a bacteriostatic effect”.
